From patent US7994211B2, “Bicyclo[2.2.1]hept-7-ylamine derivatives and their uses” (Argenta Discovery Limited, priority 2005, dated 2011) come the findings set out here.

T1 sequence (P07550 whole entry): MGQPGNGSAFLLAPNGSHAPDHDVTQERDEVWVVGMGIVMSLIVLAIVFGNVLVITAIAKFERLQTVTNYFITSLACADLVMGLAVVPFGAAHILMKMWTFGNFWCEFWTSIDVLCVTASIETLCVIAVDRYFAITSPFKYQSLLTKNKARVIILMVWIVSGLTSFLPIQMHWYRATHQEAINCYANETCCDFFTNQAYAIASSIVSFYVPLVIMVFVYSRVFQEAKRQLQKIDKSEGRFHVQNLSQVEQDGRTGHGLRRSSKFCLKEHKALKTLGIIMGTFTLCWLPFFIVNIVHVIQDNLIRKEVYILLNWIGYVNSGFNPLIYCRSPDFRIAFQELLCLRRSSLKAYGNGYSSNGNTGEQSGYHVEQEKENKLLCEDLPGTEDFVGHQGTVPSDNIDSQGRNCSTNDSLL

One test addresses T1, human β2 adrenergic receptor (Homo sapiens, UniProt P07550).
T1 construct: purchased
As to the kind of experiment: β-Adrenergic receptor radioligand binding assay ([125I]-Iodocyanopindolol).
Conditions: not given
Here is the method: Radioligand binding studies utilising [^125I]-Iodocyanopindolol and commercially available cell membranes expressing the human β2 adrenergic receptor were used to assess the affinity of antagonists for β2-adrenergic receptor. Membranes and SPA-beads were incubated with [^125I]-Iodocyanopindolol and β2 antagonist at various concentrations for 3 hours at ambient temperature in TRIS buffer. The assay was performed in 96-well plates which were read using the Wallac Microbeta counter.
In turn, `CN(CCCCCCCCCNC[C@H](O)c1ccc(O)c2[nH]c(=O)ccc12)[C@H]1[C@H]2CC[C@@H]1[C@H](OC(=O)C(O)(c1cccs1)c1cccs1)C2` [Example 41, Hydroxy-di-thiophen-2-yl-acetic acid (1S,2R,4S,7S)-7-({9-[(R)-2-hydroxy-2-(8-hydroxy-2-oxo-1,2-dihydro-quinolin-5-yl)-ethylamino]-nonyl}-methyl-amino)-bicyclo[2.2.1]hept-2-yl ester] had a Ki below 100 nM.

For the next test, the target named is T2, human muscarinic receptors (M3) (Homo sapiens, UniProt P20309).
T2 construct: purchased
T2 sequence (P20309 whole entry): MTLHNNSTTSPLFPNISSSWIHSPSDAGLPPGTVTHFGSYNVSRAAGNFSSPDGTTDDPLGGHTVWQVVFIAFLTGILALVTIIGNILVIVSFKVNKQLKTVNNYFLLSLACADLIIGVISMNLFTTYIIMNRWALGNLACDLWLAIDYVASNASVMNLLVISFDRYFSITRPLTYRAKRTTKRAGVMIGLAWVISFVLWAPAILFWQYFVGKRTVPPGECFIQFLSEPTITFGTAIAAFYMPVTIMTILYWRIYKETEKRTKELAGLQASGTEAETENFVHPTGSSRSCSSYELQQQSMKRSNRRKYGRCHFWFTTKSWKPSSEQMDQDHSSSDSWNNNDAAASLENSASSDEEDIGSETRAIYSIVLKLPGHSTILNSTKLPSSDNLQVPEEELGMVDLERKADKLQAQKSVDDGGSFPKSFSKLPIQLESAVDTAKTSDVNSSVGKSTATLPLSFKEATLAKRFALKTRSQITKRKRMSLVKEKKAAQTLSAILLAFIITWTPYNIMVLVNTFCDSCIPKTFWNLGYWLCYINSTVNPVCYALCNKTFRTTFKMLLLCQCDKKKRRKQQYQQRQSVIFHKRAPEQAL
Kind of test: Muscarinic receptor radioligand binding assay ([3H]-NMS). The settings on record: membranes expressing human M3 receptor, read-out: Binding potency (M3 binding potencies, Ki values). Here is the method: Radioligand binding studies utilising [^3H]-N-methyl scopolamine ([^3H]-NMS) and commercially available cell membranes expressing the human muscarinic receptors (M2 and M3) were used to assess the affinity of muscarinic antagonists for M2 and M3 receptors. Membranes in TRIS buffer were incubated in 96-well plates with [^3H]-NMS and M3 antagonist at various concentrations for 3 hours. Membranes and bound radioligand were then harvested by filtration and allowed to dry overnight. Scintillation fluid was then added and the bound radioligand counted using a Canberra Packard Topcount scintillation counter.
Turning to `CN(C)C1C2CCC1C(OC(=O)Nc1ccccc1-c1ccccc1)C2` (racemic) [Example 1, (±)-anti-Biphenyl-2-yl-carbamic acid 7-dimethylamino-bicyclo[2.2.1]hept-2-yl ester], the inhibition constant Ki was below 1 nM. Still for that read-out and setting: in the case of `C[N+](C)(CCCOc1ccccc1)C1C2CCC1C(OCC(O)(c1ccccc1)c1ccccc1)C2` [Example 40, anti-(1S,2R) 2-(2-Hydroxy-2,2-diphenyl-ethoxy)-bicyclo[2.2.1]hept-7-yl]-dimethyl-(3-phenoxy-propyl)-ammonium bromide] it was above 10 nM. The same measure, in the same setting: in the case of `C[N+](C)(CCCOc1ccccc1)C1C2CCC1C(OC(=O)Nc1ccccc1-c1ccccc1)C2` (single isomer, unassigned) [Example 12] it was below 1 nM; in that of `CN(CCCOc1ccccc1)C1C2CCC1C(OC(=O)C1c3ccccc3Oc3ccccc31)C2` [Example 34, anti-(1S,2R) 9H-Xanthene-9-carboxylic acid 7-[methyl-(3-phenoxy-propyl)-amino]-bicyclo[2.2.1]hept-2-yl ester], 1 to 10 nM; in that of `CN(C)C1C2CCC1C(OC(=O)Nc1ccccc1-c1ccccc1)C2` (single isomer, unassigned) [Example 2, anti-Biphenyl-2-yl-carbamic acid 7-dimethylamino-bicyclo[2.2.1]hept-2-yl ester], below 1 nM. Same read-out and setting: under `CN(C)C1C2CCC1C(OC(=O)Nc1ccccc1-c1ccccc1)C2` (single isomer, unassigned) [Example 7, syn-Biphenyl-2-yl-carbamic acid 7-dimethylamino-bicyclo[2.2.1]hept-2-yl ester] stands 1 to 10 nM; under `CN(C)C1C2CCC1C(OC(=O)Nc1ccccc1-c1ccccc1)C2` (single isomer, unassigned) [Example 6, syn-Biphenyl-2-yl-carbamic acid 7-dimethylamino-bicyclo[2.2.1]hept-2-yl ester], 1 to 10 nM; under `CN(C)C1C2CCC1C(OC(=O)Nc1ccccc1-c1ccccc1)C2` (single isomer, unassigned) [Example 3, anti-Biphenyl-2-yl-carbamic acid 7-dimethylamino-bicyclo[2.2.1]hept-2-yl ester], 1 to 10 nM.

For the compound `C[N+](C)(C)C1C2CCC1C(OC(=O)Nc1ccccc1-c1ccccc1)C2` (racemic) [Example 8, (±)-syn-[2-(Biphenyl-2-ylcarbamoyloxy)-bicyclo[2.2.1]hept-7-yl]-trimethyl-ammonium iodide], the inhibition constant Ki was in the range of 1 to 10 nM. For `CN(CCCOc1ccccc1)C1C2CCC1C(OC(=O)Nc1ccccc1-c1ccccc1)C2` (single isomer, unassigned) [Example 9, anti-Biphenyl-2-yl-carbamic acid-7-[methyl-(3-phenoxy-propyl)-amino]bicyclo[2.2.1]hept-2-yl ester], the Ki is above 10 nM. On to `C[N+](C)(CCCOc1ccccc1)C1C2CCC1C(OC(=O)C1c3ccccc3Oc3ccccc31)C2` [Example 36, anti-(1S,2R) Dimethyl-(3-phenoxy-propyl)-[2-(9H-xanthene-9-carbonyloxy)-bicyclo[2.2.1]hept-7-yl]-ammonium bromide], for which the Ki was below 1 nM. Still for that read-out and setting: under `C[N+](C)(CCCOc1ccccc1)C1C2CCC1C(OC(=O)Nc1ccccc1-c1ccccc1)C2` (single isomer, unassigned) [Example 11] stands below 1 nM; under `CN(CCCOc1ccccc1)C1C2CCC1C(OC(=O)Nc1ccccc1-c1ccccc1)C2` (single isomer, unassigned) [Example 10, anti-Biphenyl-2-yl-carbamic acid-7-[methyl-(3-phenoxy-propyl)-amino]-bicyclo[2.2.1]hept-2-yl ester], above 10 nM.
